Patent EP1377579B1 (Aventis Pharmaceuticals Inc., priority 2000, dated 2002)
Where “and” joins values, the source holds several entries; their conditions need not be identical. Equal entries are not always repeated. Where two headings read alike, the source gives them in different places.

Key:
[1] = tested on: MDA-MB-435; assay: In vitro proliferation assay (MTT), MDA-MB-435; format: cell-based, human; conditions: Homo sapiens
Method in brief: (§1)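 A570 readout of DMSO-solubilized MTT formazan after 3-day compound exposure; IC50 from raw data. Cells plated 1000–2500/well and recovered overnight before dosing.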

[2] = tested on: HL-60 Human Leukemia; assay: HL-60 human leukemia xenograft in nude mice; format: in vivo; design: key: tumor volume = ½(a × b²) from caliper diameters, in mm^3
Description: Antitumor efficacy is assessed using two subcutaneous human tumor xenograft models. The studies are performed using conventional assay techniques. Briefly, HL-60 (leukemia, 5 x10^5 cells) and PC-3 (prostate, 5 x 10^6 cells) tumor cells are injected subcuateously into nude mice (Crl-CD1-Br-nu, Charles River Laboratory, Wilmington, MA). Dosing with compounds began when tumors reached 50 to 100 mm^3. The dose route/schedule for the test compounds is ip/qld (5x/wk). The test doses are set based on the maximum tolerated dose (MTD). […] The test doses for the efficacy studies are set at 1/3rd the MTD (low dose) and the MTD (high dose). The results are shown in Tables 4 and 5 (HL-60, leukemia) (PC-3, prostate cancer). The length of the treatment phase is dependent on the tumor growth rate for the two models. This treatment phase is typically about 3 weeks for the HL-60 model and about 5 weeks for the PC-3 model. […] Dosing with flavopiridol is for the same time frame as for the experimental compounds in both xenograft models. Tumor volume (twice weekly) and body weights (once weekly) are monitored throughout the course of the treatment phase of the experiment. Tumor sizes are measured by external caliper measurements of protruding tumor. Volumes are calculated using the following formula: volume =½ (a x b2), where b is the smaller of two perpendicular diameters.

[3] = tested on: Jurkat; assay: In vitro proliferation assay (MTT), Jurkat; format: cell-based; conditions: Homo sapiens, read-out: Jurkat Leuk. (IC50 µM)
Method in brief: (§2)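 A570 of DMSO-solubilized formazan was the read-out. Seeding: 1000–2500 cells/well, overnight recovery. Compound exposure: 3 days. MTT incubation: 2–4 hr, 37 C. IC50 calculated from raw absorbance.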

[4] = Red blood cell binding, mouse whole blood; format: in vitro ADME; conditions: 30 minutes at 37°C, 500 ng/ml
Description: Compounds, including one positive control, are assessed for red blood cell (RBC) uptake, using a modified procedure based on the protocol reported in Sun, J.X.S., et al. High-performance liquid chromatographic analysis, plasma protein binding and red blood cell partitioning of phenprobamate. Biopharmaceutics and Drug Disposition, 8 (1987) 341-351.
Briefly, RBC uptake is evaluated by comparison of the levels in spiked plasma (n=3) and plasma isolated from spiked whole blood (n=3). Compounds are incubated with human and mouse whole blood, respectively, for 30 minutes at 37°C using a nominal concentration of 500 ng/ml. Following centrifugation, the plasma is removed and submitted for analysis. Each compound is also spiked into blank plasma at a nominal concentration of 500 ng/ml, and submitted for analysis. Levels in the two plasma samples (Cp' and Cp in the equation below) and the blood hematocrit are used to determine the red blood cell to plasma ratio (Crbc/Cp). (Crbc)/(Cp) = (Cpʹ)/(Cp•H)-((1-H))/(H) [formula] In equation 1, Cp' is the level of drug in the spiked "blank" plasma, Cp is the level of drug in the plasma of spiked whole blood, and H is the hematocrit. The hematocrit values are determined as 0.4 for human whole blood and 0.41 for mouse whole blood. The samples are analyzed with ESI LC/MS, using positive ion detection with an internal standard.
The red blood cell to plasma ratio is determined for each compound using equation 1. Tables 6 and 7 summarize the respective mean Crbc/Cp values and standard deviations for mouse and human whole blood, respectively, in descending order based on the red blood cell to plasma ratio, where"*" denotes Positive Control, and "ND" denotes Not Determined. MDL 108552 is included as a positive control for red blood cell uptake. Table 6. Red Blood Cell to Plasma Ratio for compounds in mouse whole blood

[5] = Bioavailability experiment in mice given single intravenous cassette doses; conditions: for Cls: mice plasma, single intravenous cassette dose; for Conc. in plasma / Conc. (ng/ml) in plasma: mice; for Conc. in plasma: single 15 mg/kg intravenous cassette dose (3 mg/kg/compound), BLQ = below assay quantification limit (approximately 1 ng/ml); for Conc. (ng/ml) in plasma: 24 h, BLQ = below assay quantification limit
[6] = tested on: HL-60; assay: In vitro proliferation assay (MTT), HL-60; format: cell-based; conditions: Homo sapiens
Method in brief: as §2

[7] = tested on: PC-3; assay: In vitro proliferation assay (MTT), PC-3; format: cell-based, human; conditions: Homo sapiens
Method in brief: as §1

[8] = MDA-MB-435, MTT assay, value (SD, n) where given, read-out: MB-435 Breast (IC50 µM)
[9] = MTT assay, value (SD, n) where given
[10] = 3 mg/kg/compound (15 mg/kg Total Dose), Cassette #3
[11] = HL-60, MTT assay, value (SD, n) where given, read-out: HL-60 Leuk. (IC50 µM)
[12] = PC-3, MTT assay, value (SD, n) where given, read-out: PC-3 Prostate (IC50 µM)
[13] = MDA-MB-435, read-out: MB-435 Breast (IC50 µM)
[14] = HL-60, read-out: HL-60 Leuk. (IC50 µM)
[15] = PC-3, read-out: PC-3 Prostate (IC50 µM)
[16] = Cassette #1, single 18 mg/kg intravenous cassette dose
[17] = 3 mg/kg/compound (18 mg/kg Total Dose), Cassette #1

Compound | IC50 [1, 8] [µM] | IC50 [3, 9] [µM] | Mean Red Blood Cell to Plasma Ratio [4] | IC50 [6, 11] [µM] | IC50 [7, 12] [µM] | Conc. (ng/ml) in plasma [5, 16] | Cls [5, 17] [mL/min/kg] | HL60 Mean Vol. ± SD ([2]; Table 4, dose 1 mg/kg ip) | HL60 Mean Vol. ± SD ([2]; Table 4, dose 3 mg/kg ip) | Cls [5, 10] [mL/min/kg] | Conc. in plasma ([5]; Cassette #3, 24 h) | IC50 [1, 13] [µM] | HL60 Mean Vol. ± SD ([2]; Table 5, dose 3 mg/kg ip) | IC50 [3] [µM] | IC50 [6, 14] [µM] | IC50 [7, 15] [µM] | further results
Cl.Cl.N[C@H]1CC[C@H](Nc2nc(NC3CCN(C(=O)Nc4ccc(C(F)(F)F)cc4)CC3)c3ncn(C4CCCC4)c3n2)CC1 [compound 149, trans-4-[2-(4-Amino-cyclohexylamino)-9-cyclopentyl-9H-purin-6-ylamino]-piperidine-1-carboxylic acid (4-trifluoromethyl-phenyl)-amide dihydrochloride] | 0.15 | 0.22 | 3.4 | 0.03 | 0.26 | – | – | 4010 ± 2371 | 2505 ± 2104 | 49.1 | BLQ | – | – | – | – | – | –
Cl.Cl.N[C@H]1CC[C@H](Nc2nc(NC3CCN(C(=O)Oc4ccc(Br)cc4)CC3)c3ncn(C4CCCC4)c3n2)CC1 [compound 81, trans-4-[2-(4-Amino-cyclohexylamino)-9-cyclopentyl-9H-purin-6-ylamino]-piperidine-1-carboxylic acid 4-bromo-phenyl ester dihydrochloride] | – | – | – | – | – | – | – | – | – | – | – | 0.1 | 5104 ± 4014 | 0.1 | 0.02 | 0.12 | HL60 Mean Vol. ± SD ([2]; Table 5, dose 1 mg/kg ip): 5802 ± 2996; Mean Red Blood Cell to Plasma Ratio ([4]; dihydrochloride): 3.3 and 4.5; Conc. (ng/ml) in plasma ([5]; Cassette #2, single 18 mg/kg intravenous cassette dose): BLQ; Cls ([5]; 3 mg/kg/compound (18 mg/kg Total Dose), Cassette #2): 75.8 mL/min/kg
COC(=O)c1ccc(OC(=O)N2CCC(Nc3nc(N[C@H]4CC[C@H](N)CC4)nc4c3ncn4C3CCCC3)CC2)cc1.Cl.Cl [compound 83, trans-4-[2-(4-Amino-cyclohexylamino)-9-cyclopentyl-9H-purin-6-ylamino]-piperidine-1-carboxylic acid 4-methoxycarbonyl-phenyl ester dihydrochloride] | – | – | 112.2 | – | – | BLQ | 111.4 | – | – | – | – | 0.17 | 5906 ± 2948 | 0.14 | 0.06 | 0.15 | HL60 Mean Vol. ± SD ([2]; Table 5, dose 10 mg/kg ip): 4057 ± 2599
Cl.Cl.N[C@H]1CC[C@H](Nc2nc(NC3CCN(C(=O)Oc4ccc(Cl)cc4)CC3)c3ncn(C4CCCC4)c3n2)CC1 [compound 88, trans-4-[2-(4-Amino-cyclohexylamino)-9-cyclopentyl-9H-purin-6-ylamino]-piperidine-1-carboxylic acid 4-chloro-phenyl ester dihydrochloride] | – | – | 3.5 | – | – | – | – | 4415 ± 2740 | 2624 ± 2108 | 77.9 | BLQ | 0.02 | – | 0.02 | 0.07 | 0.1 | –
Cl.Cl.N[C@H]1CC[C@H](Nc2nc(NC3CCN(C(=O)c4cccc(C(F)(F)F)c4F)CC3)c3ncn(C4CCCC4)c3n2)CC1 [compound 12, trans-1-{4-[2-(4-Amino-cyclohexylamino)-9-cyclopentyl-9H-purin-6-ylamino]-piperidin-1-yl}-1-(2-fluoro-3-trifluoromethyl-phenyl)-methanone dihydrochloride] | 0.28 | 0.48 | 1.9 | 0.16 | 0.48 | BLQ | 19.6 | – | – | – | – | – | 4948 ± 2803 | – | – | – | HL60 Mean Vol. ± SD ([2]; Table 5, dose 10 mg/kg ip): 2624 ± 2108
Cl.Cl.N[C@H]1CC[C@H](Nc2nc(NC3CCN(C(=O)Oc4ccc(F)cc4)CC3)c3ncn(C4CCCC4)c3n2)CC1 [compound 87, trans-4-[2-(4-Amino-cyclohexylamino)-9-cyclopentyl-9H-purin-6-ylamino]-piperidine-1-carboxylic acid 4-fluoro-phenyl ester dihydrochloride] | – | – | 3.4 | – | – | – | – | 3718 ± 2715 | 7096 ± 3079 | 97.4 | BLQ^a | 0.11 | – | 0.2 | 0.05 | – | –

More lines, main results first:

IC50 [1, 8] [µM] | IC50 [3, 9] [µM] | Mean Red Blood Cell to Plasma Ratio [4] | IC50 [6, 11] [µM] | IC50 [7, 12] [µM] | Conc. (ng/ml) in plasma [5, 16] | Cls [5, 17] [mL/min/kg] | Compound | HL60 Mean Vol. ± SD ([2]; Table 4, dose 1 mg/kg ip) | HL60 Mean Vol. ± SD ([2]; Table 4, dose 3 mg/kg ip) | Cls [5, 10] [mL/min/kg] | Conc. in plasma ([5]; Cassette #3, 24 h) | IC50 [1, 13] [µM] | HL60 Mean Vol. ± SD ([2]; Table 5, dose 3 mg/kg ip) | IC50 [3] [µM] | IC50 [6, 14] [µM] | IC50 [7, 15] [µM] | further results
0.12 | 0.19 | 3.0 | 0.1 | 0.82 | – | – | Cl.Cl.N[C@H]1CC[C@H](Nc2nc(NC3CCN(S(=O)(=O)c4ccc(F)cc4)CC3)c3ncn(C4CCCC4)c3n2)CC1 [compound 106, trans-N^2-(4-Amino-cyclohexyl)-9-cyclopentyl-N^6-[1-(4-fluoro-benzenesulfonyl)-piperidin-4-yl]-9H-purine-2,6-diamine dihydrochloride] | 4271 ± 3851 | 7368 ± 2592 | – | – | – | – | – | – | – | Cls ([5]; 3 mg/kg/compound (15 mg/kg Total Dose), Cassette #4): 113.7 mL/min/kg; Conc. in plasma ([5]; Cassette #4, 8 h, Mean ± SD): BLQ^a; Conc. in plasma ([5]; Cassette #4, 24 h): BLQ
0.87 | 0.11 | 2.4 | 0.18 | 0.16 | – | – | Cl.Cl.N[C@H]1CC[C@H](Nc2nc(NC3CCN(S(=O)(=O)c4cccc(C(F)(F)F)c4)CC3)c3ncn(C4CCCC4)c3n2)CC1 [compound 112, trans-N^2-(4-Amino-cyclohexyl)-9-cyclopentyl-N^6-[1-(3-trifluoromethyl-benzenesulfonyl)-piperidin-4-yl]-9H-purine-2,6-diamine dihydrochloride] | 4170 ± 3111 | – | 34.2 | BLQ | – | – | – | – | – | HL60 Mean Vol. ± SD ([2]; Table 4, dose 0.3 mg/kg ip): 5413 ± 2845
0.43 | 1.05 | 2.2 | 0.38 | 0.76 | BLQ | 34.2 | COC(=O)c1ccccc1S(=O)(=O)N1CCC(Nc2nc(N[C@H]3CC[C@H](N)CC3)nc3c2ncn3C2CCCC2)CC1.Cl.Cl [compound 111, trans-2-{4-[2-(4-Amino-cyclohexylamino)-9-cyclopentyl-9H-purin-6-ylamino]-piperidine-1-sulfonyl}-benzoic acid methyl ester dihydrochloride] | – | 3798 ± 2431 | – | – | – | – | – | – | – | HL60 Mean Vol. ± SD ([2]; Table 4, dose 10 mg/kg ip): 2387 ± 1282
